One assay deals with Full-length human BTK (Homo sapiens (Human), UniProt Q06187). The assay can be described thus: BTK inhibitory activity, Reaction Biology Corporation kinase assay. Conditions: for inhibition at 0.005 µM: read-out: BTK inhibitory rate(%).
The target in assay [1] is Full-length human BTK (C481S) (Homo sapiens (Human), UniProt Q06187, C481S). The assay can be described thus: BTK (C481S) inhibitory activity, Reaction Biology Corporation kinase assay. Conditions: for inhibition at 0.005 µM: read-out: BTK(C481S) inhibitory rate(%).
Chain of Full-length human BTK (C481S) (Q06187 whole entry C481S): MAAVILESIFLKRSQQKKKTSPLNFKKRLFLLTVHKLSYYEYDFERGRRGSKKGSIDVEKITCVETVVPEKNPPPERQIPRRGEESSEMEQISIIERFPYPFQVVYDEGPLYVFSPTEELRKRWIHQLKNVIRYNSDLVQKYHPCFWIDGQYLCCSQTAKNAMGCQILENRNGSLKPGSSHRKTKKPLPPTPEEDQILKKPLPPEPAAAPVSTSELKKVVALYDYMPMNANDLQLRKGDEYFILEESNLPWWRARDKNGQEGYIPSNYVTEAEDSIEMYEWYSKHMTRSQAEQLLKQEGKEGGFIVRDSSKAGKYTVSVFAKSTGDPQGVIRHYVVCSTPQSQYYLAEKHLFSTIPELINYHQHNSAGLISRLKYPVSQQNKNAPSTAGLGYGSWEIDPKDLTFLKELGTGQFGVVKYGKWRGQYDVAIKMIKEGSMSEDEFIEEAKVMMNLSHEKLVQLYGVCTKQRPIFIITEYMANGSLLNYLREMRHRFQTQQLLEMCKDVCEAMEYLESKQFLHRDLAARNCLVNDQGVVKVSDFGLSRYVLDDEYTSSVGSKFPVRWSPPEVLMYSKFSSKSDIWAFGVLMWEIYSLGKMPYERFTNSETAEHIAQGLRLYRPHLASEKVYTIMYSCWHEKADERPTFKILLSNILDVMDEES
Assay [2] deals with TMD8 cells (Human diffuse large B lymphoma cells). Put plainly: CellTiter-Glo TMD8 inhibitory activity. In kind it is cell-based. Conditions: cultured in vitro. From the text:
CellTiter-Glo kit was used to test the TMD8 inhibitory activity of compounds of examples on Human diffuse large B lymphoma cells cultured in vitro. IC50 values were shown below.
For orientation: Cellular ATP, detected with luciferase, serves as a proxy for viable cell number.

The mark [3] stands for this setting: IC50(nM) BTK, (d) ATP concentration 50 μM.
Where [4] appears, read: IC50(nM) BTK(C481S), (d) ATP concentration 50 μM.
The mark [5] stands for this setting: read-out: IC50(nM) BTK, (a) ATP concentration 30 μM.
The mark [6] stands for this setting: read-out: IC50(nM) BTK, (d) ATP concentration 50 μM.
The mark [7] stands for this setting: read-out: IC50(nM) BTK(C481S), (d) ATP concentration 50 μM.

Like-named read-outs stand apart in the source and are kept apart here.

Chain of Full-length human BTK (Q06187 whole entry): as the sequence (Q06187 whole entry C481S) above, with S481C counted along it

In general, IC50 refers to the concentration that gives 50% inhibition. For `COc1cccc(Oc2ccc(-c3nn(C4CCC(CO)OC4)c4ncnc(N)c34)cc2)c1F` (single isomer, unassigned) [Example 30 Peak1-1, (5-(4-amino-3-(4-(2-fluoro-3-methoxyphenoxy)phenyl)-1H-pyrazolo[3,4-d]pyrimidin-1-yl)tetrahydro-2 h-pyran-2-yl)methanol], the results for the IC50 (against Full-length human BTK (setting [3]); in assay [1] (setting [4])) were 3.8 nM and 3.7 nM, respectively.

As for `COc1cccc(Oc2ccc(-c3nn(C4CCC(CO)OC4)c4ncnc(N)c34)cc2)c1F` (single isomer, unassigned) [Example 30 Peak1-2, (5-(4-amino-3-(4-(2-fluoro-3-methoxyphenoxy)phenyl)-1H-pyrazolo[3,4-d]pyrimidin-1-yl)tetrahydro-2 h-pyran-2-yl)methanol], the IC50 at Full-length human BTK (setting [3]) amounted to 8.5 nM; in assay [1] (setting [4]), 6.7 nM. Turning to `COc1cccc(Oc2ccc(-c3nn(C4CCC(CO)OC4)c4ncnc(N)c34)cc2)c1F` (single isomer, unassigned) [Example 30 Peak2-1, (5-(4-amino-3-(4-(2-fluoro-3-methoxyphenoxy)phenyl)-1H-pyrazolo[3,4-d]pyrimidin-1-yl)tetrahydro-2 h-pyran-2-yl)methanol], the IC50 against Full-length human BTK (setting [3]) was found to be 1.8 nM; in assay [1] (setting [4]) it was 1.1 nM. In the same order, the values of `COc1cccc(Oc2ccc(-c3nn(C4CCC(CO)OC4)c4ncnc(N)c34)cc2)c1F` (single isomer, unassigned) [Example 30 Peak2-2, (5-(4-amino-3-(4-(2-fluoro-3-methoxyphenoxy)phenyl)-1H-pyrazolo[3,4-d]pyrimidin-1-yl)tetrahydro-2 h-pyran-2-yl)methanol] are 5 nM and 2.8 nM.

In the case of `Nc1ncnc2c1c(-c1ccc(Oc3ccccc3)cc1)nn2[C@@H]1CCC[C@H](O)C1` [Example 2, (1S, 3R)-3-(4-amino-3-(4-phenoxyphenyl)-1H-pyrazolo[3,4-d]pyrimidin-1-yl) cyclohex-1-ol], on Full-length human BTK, the inhibition at 0.005 µM is 50%. As for `C[C@]1(O)CCC[C@@H](n2nc(-c3ccc(Oc4ccccc4)cc3)c3c(N)ncnc32)C1` [Example 3A, (1s, 3R)-3-(4-amino-3-(4-phenoxyphenyl)-1H-pyrazolo[3,4-d]pyrimidin-1-yl)-1-methylcyclohexane-1-ol], it took 208 nM to reach half-maximal inhibition in assay [2] (IC50). The compound `C[C@@]1(O)CCC[C@@H](n2nc(-c3ccc(Oc4ccccc4)cc3)c3c(N)ncnc32)C1` [Example 3B, (1R, 3R)-3-(4-amino-3-(4-phenoxyphenyl)-1H-pyrazolo[3,4-d]pyrimidin-1-yl)-1-methylcyclohexane-1-ol] came in with an IC50 in assay [2] of 200 nM.

`Nc1ncnc2c1c(-c1ccc(Oc3ccccc3)cc1)nn2C1CCC(O)C1` (centres unmarked) [Example 5] had an IC50 in assay [2] of 29 nM. The inhibition at 0.005 µM came out at 62% at Full-length human BTK and 53% in assay [1]. `CC1(O)CCC(n2nc(-c3ccc(Oc4ccccc4)cc3)c3c(N)ncnc32)C1` (centres unmarked) [Example 6, 3-(4-amino-3-(4-phenoxyphenyl)-1H-pyrazolo[3,4-d]pyrimidin-1-yl)-1-methylcyclopentanol]: the IC50 in assay [2] came out at 17 nM. The inhibition at 0.005 µM on Full-length human BTK was determined as 70%; in assay [1], 63%. Compound `Nc1ncnc2c1c(-c1ccc(Oc3ccccc3)cc1)nn2C1CCC(O)(C(F)(F)F)C1` (centres unmarked) [Example 7, 3-(4-amino-3-(4-phenoxyphenyl)-1H-pyrazolo[3,4-d]pyrimidin-1-yl)-1-(trifluoromethyl) Cyclopentanol] gave an IC50 in assay [2] of 504 nM. Take `Nc1ncnc2c1c(-c1ccc(Oc3ccccc3)cc1)nn2[C@H]1CC[C@@H](O)CC1` [Example 8A, (1s, 4S)-4-(4-amino-3-(4-phenoxyphenyl)-1H-pyrazolo[3,4-d]pyrimidin-1-yl) cyclohexane-1-ol]: inhibition in assay [2] was half-maximal at 90 nM (IC50). Besides, the results for the inhibition at 0.005 µM (at Full-length human BTK; in assay [1]) were 82% and 66%, respectively. Consider `C[C@]1(O)CC[C@@H](n2nc(-c3ccc(Oc4ccccc4)cc3)c3c(N)ncnc32)CC1` [Example 9A, (1s,4s)-4-(4-amino-3-(4-phenoxyphenyl)-1H-pyrazolo[3,4-d]pyrimidin-1-yl]-1-methylcyclohexane-1-ol], for which, in assay [2], the IC50 was 72 nM. The inhibition at 0.005 µM is 57% on Full-length human BTK and 77% in assay [1]. In the same order, the values of `C[C@]1(O)CC[C@H](n2nc(-c3ccc(Oc4ccccc4)cc3)c3c(N)ncnc32)CC1` [Example 9B, (1r,4r)-4 (4-amino-3-(4-phenoxyphenyl)-1H-pyrazolo[3,4-d]pyrimidin-1-yl]-1-methylcyclohexane-1-ol] are 37 nM, 46% and 63%. In assay [2], `Nc1ncnc2c1c(-c1ccc(Oc3ccccc3)cc1)nn2C1CCC(O)(C2CC2)CC1` (centres unmarked) [Example 10, 4-(4-amino-3-(4-phenoxyphenyl)-1H-pyrazolo[3,4-d]pyrimidin-1-yl]-1-cyclopropylcyclohexane-1-ol] registered a half-maximal inhibitory concentration (IC50) of 145 nM. Moreover, the inhibition at 0.005 µM at Full-length human BTK came out at 63%; in assay [1], 72%. Regarding `Nc1ncnc2c1c(-c1ccc(Oc3cccc(F)c3)cc1)nn2[C@@H]1CCC[C@@H](O)C1` [Example 15], the inhibition at 0.005 µM at Full-length human BTK worked out at 55%. In addition, the concentration for half-maximal inhibition (IC50) came to 3.8 nM on Full-length human BTK (read-out: IC50(nM) BTK, (c) ATP concentration 10 μM) and 1.7 nM in assay [1] (read-out: IC50(nM) BTK(C481S), (c) ATP concentration 10 μM). Consider `Nc1ncnc2c1c(-c1ccc(Oc3ccccc3)cc1F)nn2[C@@H]1CCC[C@@H](O)C1` [Example 16, (1R, 3R)-3-(4-amino-3-(2-fluoro-4-phenoxyphenyl)-1H-pyrazolo[3,4-d]pyrimidin-1-yl)cyclohex-1-ol], for which the values for the IC50 (in assay [2]; at Full-length human BTK (setting [5])) were 41 nM and 18.8 nM, respectively.

Take `Nc1ncnc2c1c(-c1ccc(Oc3ccccc3F)cc1)nn2[C@@H]1CCC[C@@H](O)C1` [Example 17, (1R,3R)-3-(4-amino-3-(4-(2-fluorophenoxy)phenyl)-1H-pyrazolo[3,4-d]pyrimidin-1-yl)cyclohex-1-ol]: the IC50 is 33 nM in assay [2] and 24.1 nM on Full-length human BTK (setting [5]). For `Nc1ncnc2c1c(-c1ccc(Oc3c(F)cccc3F)cc1)nn2[C@@H]1CCC[C@@H](O)C1` [Example 18, (1R, 3R)-3-(4-amino-3-(4-(2,6-difluorophenoxy)phenyl)-1H-pyrazolo[3,4-d]pyrimidin-1-yl)cyclohex-1-ol], in that order: 183 nM and 49.1 nM. On to `COc1cccc(Oc2ccc(-c3nn([C@@H]4CCC[C@@H](O)C4)c4ncnc(N)c34)cc2)c1F` [Example 19, (1R, 3R)-3-(4-amino-3-(4-(2-fluoro-3-methoxyphenoxy)phenyl)-1H-pyrazolo[3,4-d]pyrimidin-1-yl)cyclohex-1-ol], for which the results for the IC50 (in assay [2]; at Full-length human BTK (setting [5])) were 0.5 nM and 24.9 nM, respectively.

In the case of `COc1cccc(Oc2ccc(-c3nn([C@H]4CC[C@@H](O)CC4)c4ncnc(N)c34)cc2)c1F` [Example 20, (1s,4s)-4-(4-amino-3-(4-(2-fluoro-3-methoxyphenoxy)phenyl)-1H-pyrazolo[3,4-d]pyrimidin-1-yl)cyclohex-1-ol], the IC50 in assay [2] was 8.6 nM; at Full-length human BTK (read-out: IC50(nM) BTK, (b) ATP concentration 100 μM), 5 nM; in assay [1] (read-out: IC50(nM) BTK(C481S), (b) ATP concentration 100 μM) it was 0.9 nM. For the compound `COc1cccc(Oc2ccc(-c3nn([C@H]4CC[C@H](O)CC4)c4ncnc(N)c34)cc2)c1F` [Example 21, (1r, 4r)-4-(4-amino-3-(4-(2-fluoro-3-methoxyphenoxy)phenyl)-1H-pyrazolo[3,4-d]pyrimidin-1-yl)cyclohex-1-ol], on Full-length human BTK (setting [5]), the IC50 is 16 nM. Take `COc1cccc(Oc2ccc(-c3nn(C4CCC(O)C4)c4ncnc(N)c34)cc2)c1F` (centres unmarked) [Example 22, 3-(4-amino-3-(4-(2-fluoro-3-methoxyphenoxy)phenyl)-1H-pyrazolo[3,4-d]pyrimidin-1-yl)cyclopentane-1-ol]: in assay [2], the IC50 worked out at 8 nM. In the case of `Nc1ncnc2c1c(-c1ccc(Oc3cccc(F)c3)cc1)nn2C1CCC(O)C1` (centres unmarked) [Example 25, 3-(4-amino-3-(4-(3-fluorophenoxy)phenyl)-1H-pyrazolo[3,4-d]pyrimidin-1-yl) cyclopentane-1-ol], on Full-length human BTK (setting [5]), the IC50 is 26.9 nM.

In the case of `COc1cccc(Oc2ccc(-c3nn(C4CCC(O)C(O)C4)c4ncnc(N)c34)cc2)c1F` (centres unmarked) [Example 28, 4-(4-amino-3-(4-(2-fluoro-3-methoxyphenoxy)phenyl)-1H-pyrazolo[3,4-d]pyrimidin-1-yl)cyclohexane-1,2-diol], the IC50 worked out at 1.7 nM at Full-length human BTK (setting [6]) and 0.6 nM in assay [1] (setting [7]). With `COc1cccc(Oc2ccc(-c3nn(C4CCCCC4)c4ncnc(N)c34)cc2)c1F` [Example 29, 1-cyclohexyl-3-(4-(2-fluoro-3-methoxyphenoxy)phenyl)-1H-pyrazolo[3,4-d]pyrimidin-4-amine, reference compound], the IC50 at Full-length human BTK (setting [5]) was found to be 64.1 nM.

For `COc1cccc(Oc2ccc(-c3nn([C@H]4CCC[C@H](O)C4)c4ncnc(N)c34)cc2)c1F` [Example 32, (1S,3S)-3-(4-amino-3-(4-(2-fluoro-3-methoxyphenoxy)phenyl)-1H-pyrazolin[3,4-d]pyrimidin-1-yl)cyclohexanol], the half-maximal inhibitory concentration (IC50) on Full-length human BTK (setting [6]) amounted to 2.6 nM; in assay [1] (setting [7]) it was 0.9 nM. For `Nc1ncnc2c1c(-c1ccc(Oc3cccc(O)c3F)cc1)nn2[C@@H]1CCC[C@@H](O)C1` [Example 33, (1R,3R)-3-(4-(4-amino-1-(3-hydroxycyclohexyl)-1H-pyrazolo[3,4-d]pyrimidin-3-yl)phenoxy)-2-fluorophenol], the IC50 at Full-length human BTK (setting [5]) was found to be 19.2 nM.

(Values after patent US12384786B2 (MINGHUI PHARMACEUTICAL (SHANGHAI) LIMITED, priority 2019, dated 2025).)
